Like-named read-outs stand apart in the source and are kept apart here.
Legend:
Type in all cases: cell-based
[1] = test system: WiDr cells (colon cancer cells; wildtype SF3B1); assay: Cell viability assay (CellTiter-Glo, 72 hr), WiDr cells; details: Homo sapiens
Method: (§1) Cells (WiDr and Panc05.04 obtained from ATCC) were seeded in 96-well plates, with 2000 cells/100 μL/well, and incubated overnight. Spent media was removed, and fresh media containing 9 different concentrations of compound (100 μL/well) were added, with DMSO concentration from compound stock solution adjusted to be 0.1%. Each compound treatment was done in duplicate or triplicate at each concentration.
(§2) Another plate with cells seeded was dedicated as a time zero (Tz) plate, to which was added 0.1% DMSO in media (100 μL/well) followed by CellTiter-Glo® reagent (Promega Corporation, Madison, Wisconsin) (50 μL/well) for ATP measurement as a surrogate of cell viability. Average value from measurement of multiple wells of this plate is used as Tz. Compound-treated plates were incubated for 72 hr at 37° C. Then, CellTiter-Glo® reagent (50 μL/well) was added and ATP was measured. Average value from measurement of the duplicate or triplicate compound-treated wells is used as Ti, and seeded plates with medium having 0.1% DMSO without compound is used as control growth (C).
(§3) Percentage growth inhibition/Percentage viability was calculated as:
(§4) [(Ti−Tz)/(C−Tz)]×100 for concentrations for which Ti>/=Tz
(§5) [(Ti−Tz)/Tz]×100 for concentrations for which Ti<Tz.
(§6) *time zero (Tz), control growth (C), and test growth in the presence of compound (Ti) Percentage growth inhibition/Percentage viability are plotted versus compound concentration to determine Emax.
Emax refers to the maximum achievable response to a compound in a tested dose range, with a negative value indicating cellular lethality. A larger negative Emax value indicates greater cellular lethality for a particular compound. […]

[2] = test system: Panc 05.04 cells (pancreatic cancer cells; Q699H and K700E mutations in SF3B1); assay: Cell viability assay (CellTiter-Glo, 72 hr), Panc 05.04 cells; details: for Emax: maximum achievable response in tested dose range, negative value = cellular lethality, read-out: Panc 05.04 (mt SF3B1 cells) Emax (%)
Method: as §1, §2, §3, §4, §5, §6
(§7) Emax refers to the maximum achievable response to a compound in a tested dose range, with a negative value indicating cellular lethality. A larger negative Emax value indicates greater cellular lethality for a particular compound.

[3] = test system: WiDr-R cells (colon cancer cells; chemically-induced SF3B1 R1074H mutant); assay: Cell viability assay (CellTiter-Glo, 72 hr), resistant WiDr-R cells (counter-screen); details: WiDr-R cells (SF3B1 R1074H mutation, resistant); read-out: WiDr-R GI50
Method: as §1, §2, §3, §4, §5, §6, §7
The counter-screening of compounds in this viability assay with a “resistant” WiDr-R cell line may indicate whether these compounds have off-target effect(s).

[4] = WiDr cells (wildtype SF3B1), read-out: WiDr GI50
[5] = Panc 05.04 cells (mutant SF3B1)
[6] = Panc 05.04 cells (mutant SF3B1), read-out: Panc 05.04 (mt SF3B1 cells), GI50
[7] = WiDr cells, 72 hr, CellTiter-Glo, read-out: WiDr GI50
[8] = Panc 05.04, Panc05.04 cells, 72 hr, CellTiter-Glo, read-out: Panc05.04 GI50

| SMILES | Emax [2, 5] [%] | GI50 [2, 6] [µM] | other results |
| --- | --- | --- | --- |
| C/C(=C\C=C\C1(COC(=O)N2CCCC2)CC1)[C@H]1OC(=O)C[C@H](O)CC[C@@](C)(O)[C@@H](OC(=O)N2CCN(C3CCCCCC3)CC2)/C=C/[C@@H]1C | -24.7 | 0.302 | GI50 [1, 4]: 138 nM; GI50 [3]: > 1 µM |
| C/C(=C\C=C\CCOC(=O)N1CCCC1)[C@H]1OC(=O)C[C@H](O)CC[C@@](C)(O)[C@@H](OC(=O)N2CCN(C)CC2)/C=C/[C@@H]1C |  | 0.0584 | GI50 [1, 4]: 63.6 nM; GI50 [3]: > 5.5 µM |
| CC(=O)O[C@H]1/C=C/[C@H](C)[C@@H](/C(C)=C/C=C/Cc2cccnc2)OC(=O)C[C@H](O)CC[C@@]1(C)O | 84.5 | > 6.4 | GI50 [1, 4]: 538 nM; GI50 [3]: > 10 µM |
| C/C(=C\C=C\[C@@H](C)c1ccccn1)[C@H]1OC(=O)C[C@H](O)CC[C@@](C)(O)[C@@H](OC(=O)N2CC3CCC(C2)N3C2CCCCCC2)/C=C/[C@@H]1C | -95.7 | 0.065 | GI50 [1, 4]: 52 nM; GI50 [3]: > 1 µM |
| CCC(=O)[C@@H](C)[C@H]1O[C@@H]1C[C@@](C)(O)/C=C/C=C(\C)[C@H]1OC(=O)CC(=O)CC[C@@](C)(O)[C@@H](OC(C)=O)/C=C/[C@@H]1C | -81.7 | 0.0977 |  |
| COCc1ccccc1CCC(C)/C=C/C=C(\C)[C@H]1OC(=O)C[C@H](O)CC[C@@](C)(O)[C@@H](OC(C)=O)/C=C/[C@@H]1C (some centres unmarked) | -39.5 | 0.427 |  |
| C/C(=C\C=C\[C@@H](C)CCC(=O)N1CCCC1)[C@H]1OC(=O)CC(O)CCC(C)(O)[C@@H](OC(=O)N2CCN(C)CC2)/C=C/[C@@H]1C (stereo in doubt) [Compound 1, [(2S,3S,4E,6S,7S,10S)-7,10-dihydroxy-3,7-dimethyl-2-[(2E,4E,6S)-6-methyl-9-oxo-9-pyrrolidin-1-ylnona-2,4-dien-2-yl]-12-oxo-1-oxacyclododec-4-en-6-yl] 4-methylpiperazine-1-carboxylate] |  |  | cellular lethality (Emax comparison) ([2]; Panc 05.04 cells, mutant SF3B1 cell line): greater cellular lethality than Compound 7 |
| C/C(=C\C=C\C(C)c1cccnc1)[C@H]1OC(=O)C[C@H](O)CC[C@@](C)(O)[C@@H](OC(=O)N2CCC(N3CCC(F)CC3)CC2)/C=C/[C@@H]1C (some centres unmarked) | 12.5 | 0.862 |  |
| COCc1ccc(CCC(C)/C=C/C=C(\C)[C@H]2OC(=O)C[C@H](O)CC[C@@](C)(O)[C@@H](OC(C)=O)/C=C/[C@@H]2C)cc1 (some centres unmarked) | -67.3 | 0.321 |  |
| CC[C@H](O)[C@@H](C)[C@H]1O[C@@H]1C[C@@](C)(O)/C=C/C=C(\C)[C@H]1OC(=O)C[C@H](O)CC[C@@](C)(OC)[C@@H](OC(=O)N(C)CCN(C)C)/C=C/[C@@H]1C | -64.4 | 0.00348 |  |
| C/C(=C\C=C\[C@@H](C)COC(=O)N1CC[C@@H](O)C1)[C@H]1OC(=O)CCCCC[C@@H](OC(=O)N(C)C)/C=C/[C@@H]1C | -83.7 | 0.139 | GI50 ([1]; WiDr, read-out: WiDr GI50 (nM)): 154 nM |
| C/C(=C\C=C\[C@@H](C)c1cccnc1)[C@H]1OC(=O)C[C@H](O)CC[C@@](C)(O)[C@@H](OC(=O)N2CCN(C3CCCCCC3)CC2)/C=C/[C@@H]1C (single isomer, unassigned) [Compound 159] |  |  | GI50 [1, 7]: 13.3 nM; GI50 [2, 8]: 0.015 µM |
| CC(=O)O[C@H]1/C=C/[C@H](C)[C@@H](/C(C)=C/C=C/C(C)CCc2ccccc2)OC(=O)C[C@H](O)CC[C@@]1(C)O (some centres unmarked) | -26.4 | 0.827 |  |
| CC(=O)O[C@H]1/C=C/[C@H](C)[C@@H](/C(C)=C/C=C/C(C)(O)CCc2ccc(O)cc2)OC(=O)C[C@H](O)CC[C@@]1(C)O (some centres unmarked) | -70.5 | 0.249 |  |
| CCOc1cccc(CCC(C)/C=C/C=C(\C)[C@H]2OC(=O)C[C@H](O)CC[C@@](C)(O)[C@@H](OC(C)=O)/C=C/[C@@H]2C)c1 (some centres unmarked) | -32 | 0.508 |  |
| CC[Si](CC)(CC)O[C@@H]1CCN(c2nccc(C(C)/C=C/C=C(\C)[C@H]3OC(=O)CCCCC[C@@H](OC(=O)N4CCN(C5CCCCCC5)CC4)/C=C/[C@@H]3C)n2)C1 (some centres unmarked) |  |  | GI50 [1, 4]: > 1000 nM; GI50 [3]: > 10 µM |
| C/C(=C\C=C\[C@H](C)c1cccnc1)[C@H]1OC(=O)C[C@H](O)CC[C@@](C)(O)[C@@H](OC(=O)N2CCN(C3CCCCCC3)CC2)/C=C/[C@@H]1C (single isomer, unassigned) [Compound 160] |  |  | GI50 [1, 7]: 29.5 nM; GI50 [2, 8]: 0.0158 µM |

— patent US11926619B2, “Certain pladienolide compounds and methods of use” (EISAI R&D MANAGEMENT CO., LTD., priority 2018, dated 2024)
